BigSolDB 2.1

O=C(O)c1ccccc1Nc1cccc(C(F)(F)F)c1
solubility (mole fraction)
Settings | in DMSO | in ethanol | in ethylene glycol | in isopropanol | in methanol | in n-butanol | in propylene glycol | in sec-butanol | in transcutol | in water
298.2 K | 0.226 | 0.0681 | 0.00767 | 0.0962 | 0.0439 | 0.119 | 0.0126 | 0.121 | 0.193 | 5.83e-07
303.2 K | 0.241 | 0.0747 | 0.00856 | 0.105 | 0.048 | 0.13 | 0.0139 | 0.133 | 0.211 | 8.01e-07
308.2 K | 0.256 | 0.0857 | 0.00975 | 0.116 | 0.0531 | 0.142 | 0.0153 | 0.144 | 0.229 | 1.02e-06
313.2 K | 0.27 | 0.098 | 0.0107 | 0.128 | 0.0577 | 0.157 | 0.0167 | 0.16 | 0.251 | 1.28e-06
318.2 K | 0.286 | 0.112 | 0.012 | 0.144 | 0.0629 | 0.177 | 0.0181 | 0.179 | 0.278 | 1.6e-06

Settings | solubility (mole fraction)
in PEG-400, 298.2 K | 0.0337
in PEG-400, 303.2 K | 0.04
in PEG-400, 308.2 K | 0.0469
in PEG-400, 313.2 K | 0.054
in PEG-400, 318.2 K | 0.0616
